Reference: patent US8367666B2 (priority 2004, dated 2013)
Like-named read-outs stand apart in the source and are kept apart here.

Tests used:
CB2 receptor [1] = target: T1, CB2 receptor (Homo sapiens, UniProt P34972); assay: cAMP formation inhibition experiment through a cannabinoid receptor (forskolin stimulation), CB2; format: cell-based; set-up: expressed in transfected cells; host or cells: CHO cells
CB1 receptor [2] = target: T2, CB1 receptor (Homo sapiens, UniProt P21554); assay: Human cannabinoid receptor bonding inhibition test ([3H]CP55940), CB1; format: binding; set-up: expressed in transfected cells; membrane fraction
T2 sequence (P21554 whole entry): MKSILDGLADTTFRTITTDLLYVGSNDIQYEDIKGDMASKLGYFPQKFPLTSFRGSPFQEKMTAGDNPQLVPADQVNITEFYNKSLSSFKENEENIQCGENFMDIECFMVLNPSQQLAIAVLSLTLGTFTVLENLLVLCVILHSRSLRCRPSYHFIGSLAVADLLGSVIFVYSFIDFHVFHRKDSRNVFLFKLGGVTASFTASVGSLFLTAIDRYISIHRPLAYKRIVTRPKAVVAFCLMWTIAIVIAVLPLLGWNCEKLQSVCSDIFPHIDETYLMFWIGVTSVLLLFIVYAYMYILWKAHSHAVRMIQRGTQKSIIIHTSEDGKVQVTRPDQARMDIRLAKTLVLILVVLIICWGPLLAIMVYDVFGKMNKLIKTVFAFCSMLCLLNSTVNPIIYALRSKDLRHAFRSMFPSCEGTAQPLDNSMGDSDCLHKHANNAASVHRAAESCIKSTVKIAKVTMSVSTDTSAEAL

CB2 receptor [3] = target: T1, CB2 receptor; assay: Human cannabinoid receptor bonding inhibition test ([3H]CP55940), CB2; format: binding; set-up: expressed in transfected cells; membrane fraction
CB1 receptor [4] = target: T2, CB1 receptor; assay: cAMP formation inhibition experiment through a cannabinoid receptor (forskolin stimulation), CB1; format: cell-based; set-up: expressed in transfected cells; host or cells: CHO cells
Experimental: A compound being tested was added in the CHO cell which had mad human CB1 or CB2 receptor reveal and incubated for 15 minutes, and then forskolin (the final concentration 4 μM, and manufactured by SIGMA Corp.) was added and the mixture was incubated for 20 minutes. After the reaction had been stopped by adding 1M hydrochloric acid, the amount of cAMP in the supernatant was measured with the use of Cyclic AMP kit (made by the CIS Diagnostic Corp.).

[5] = tested on: scratching action induced by Compound 48/80; assay: Anti-pruritic activity test by application (Compound 48/80 scratching); format: in vivo, mouse (Crj:CD-1 (ICR)); conditions: Mus musculus, topical, read-out: Itching inhibition ratio % (Concentration %)
Experimental: 1) Preparation of the compound and the reagent: The compound being tested was dissolved in acetone (SIGMA). Compound 48/80 (SIGMA) was dissolved in physiological saline (m by Otsuka Pharmaceutical Co., Ltd.) so as to be 60 μg/mL.
2) Animals: Female Crj: CD-1 (ICR) mice of 6 to 10 age in week (Japan Charles Liver) were used as laboratory animals. The animals were fed in the barrier breeding room where […] in room temperature, 30 to 70% in humidity, and the light and shade condition existed every 12 hours and feed (CE-2: Japan Crea) and the drinking water were freely taken. The hair of dorsa (from the cervical region of the back to the center of the back) of the animals were cut with a hair clipper two days or more before the anti-pruritic activity is evaluated, those with no wound, rubefaction, and thickening of the skin on the dehaired part were chosen and supplied to the experiment on the day of the evaluation. 3) Evaluation procedures: The acetone solution of the compound being tested was applied by 50 μL on the dehaired parts of the mice with a pipeter. On the mice of the control group, 50 μL of acetone was applied. The 15 minutes later, 50 μL (corresponding to 3 μg) of Compound 48/80 solution was injected intradermally in the compound applied parts with the use of a injector (Terumo Corporation), the mice were individually put in five observation cages made of acrylate resin at once, and the scratching action (action of scratching the injection part by the hind leg) frequency during 30 minutes was measured. The evaluation was carried out in one group of 5 to 7 mice. 4) Data processing: The experiment results were shown by the mean values. The test of the significant difference of the compound applying group to the control group was conducted with Welch's t-test, and p<0.05 was assumed to be significant.

[6] = [3H]CP55940 0.5 nM, membrane preparation of CHO cells expressing CB2, Ki calculated from IC50, read-out: Binding activity (nM) CB2
[7] = read-out: Agonist activity (nM) CB1
[8] = read-out: Agonist activity (nM) CB2
[9] = read-out: Binding activity (nM) CB1
[10] = [3H]CP55940 0.5 nM, membrane preparation of CHO cells expressing CB1, Ki calculated from IC50, read-out: Binding activity (nM) CB1

T1 sequence (P34972 whole entry): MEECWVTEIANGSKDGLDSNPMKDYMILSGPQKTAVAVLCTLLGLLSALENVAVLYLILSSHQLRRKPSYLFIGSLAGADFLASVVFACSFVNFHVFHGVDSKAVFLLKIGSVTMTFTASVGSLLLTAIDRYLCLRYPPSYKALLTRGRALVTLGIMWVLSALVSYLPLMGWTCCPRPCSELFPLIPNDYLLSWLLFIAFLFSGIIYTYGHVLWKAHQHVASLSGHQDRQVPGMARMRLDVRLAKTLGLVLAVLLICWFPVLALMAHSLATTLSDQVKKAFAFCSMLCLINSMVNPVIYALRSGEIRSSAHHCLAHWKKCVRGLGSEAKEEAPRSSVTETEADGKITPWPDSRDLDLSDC

Compound	Ki (CB1 receptor [2])	IC50 (CB1 receptor [4]; [7])	Ki (CB2 receptor [3])	IC50 (CB1 receptor [4])	IC50 (CB2 receptor [1])	Ki (CB1 receptor [2]; [10])	other results
CCc1c(C)cc(C(=O)NC2(C(=O)O)CCCCC2)c(=O)n1Cc1ccc(F)cc1 [Compound I-493]	> 2000 nM	–	–	–	–	–	IC50 (CB2 receptor [1]; inhibition of forskolin (4 μM)-stimulated cAMP formation, CHO cells expressing human CB2, read-out: Agonist activity (nM) CB2): 24 nM; Ki (CB2 receptor [3]; [6]): 36 nM
COC(=O)[C@@H](NC(=O)c1cc2c(n(Cc3ccc(F)cc3)c1=O)CCCCCC2)C(C)(C)C [Compound I-263]	< 2 nM	< 2 nM	< 2 nM	–	–	–	inhibition in vivo at 1.5 % [5]: 57%
CCc1c(C)cc(C(=O)Nc2nc(CC(=O)O)cs2)c(=O)n1Cc1ccc(F)c(F)c1 [XI-025]	–	–	54 nM	> 2000 nM	–	–	IC50 (CB2 receptor [1]; [8]): 209 nM; Ki (CB1 receptor [2]; [9]): 1360 nM
CCCc1c(CC)cc(C(=O)N[C@H](C(=O)OC)C(C)C)c(=O)n1CC1CCCCC1 [Compound I-133]	5 nM	4 nM	< 2 nM	–	–	–	inhibition in vivo at 0.5 % [5]: 56%
CCCCn1c(CCC)c(CC)cc(C(=O)N[C@H](C(=O)OC)C(C)(C)C)c1=O [Compound I-211]	2.4 nM	< 2 nM	< 2 nM	–	–	–	inhibition in vivo at 1.5 % [5]: 70%
CCCCn1c2c(cc(C(=O)NC3CCCCC3)c1=O)CCCCCC2 [Compound 10-035, reference compound]	19 nM	–	0.2 nM	–	–	–	inhibition in vivo at 5 % [5]: 22%
CCCCn1c(CCC)c(CC)cc(C(=O)NC2(C(=O)O)CCCCCC2)c1=O [Compound X-241]	–	–	57 nM	> 2000 nM	26 nM	> 2000 nM	–
CCCCn1c(CCC)c(CC)cc(C(=O)NC(CC)(CC)CC(=O)O)c1=O [Compound X-196]	–	–	31 nM	> 2000 nM	45 nM	> 2000 nM	–
CCCCn1c2c(cc(C(=O)NC3(C(=O)O)CCCCCCCCC3)c1=O)CCCCCC2 [Compound X-232]	–	–	15 nM	> 2000 nM	29 nM	> 2000 nM	–
CCc1c(C)cc(C(=O)NC2(C(=O)O)CCCCCCC2)c(=O)n1Cc1ccc(F)cc1 [Compound X-239]	–	–	10 nM	> 2000 nM	3.6 nM	1420 nM	–
CCCCn1c2c(cc(C(=O)NC(CCC(=O)O)CC(C)C)c1=O)CCCCCC2 (stereo not drawn) [Compound X-202]	–	–	46 nM	> 2000 nM	81 nM	1180 nM	–
CCCCn1c2c(cc(C(=O)N[C@H](C(=O)OC)C(C)C)c1=O)CCCCCC2 [Compound I-111]	3.5 nM	< 2 nM	< 2 nM	–	–	–	inhibition in vivo at 0.1 % [5]: 55%
CCCCn1c2c(cc(C(=O)N[C@H](CC(=O)O)CC(C)C)c1=O)CCCCCC2 [Compound X-138]	–	–	42 nM	> 2000 nM	30 nM	> 2000 nM	–
CCc1c(C)cc(C(=O)N[C@H](C(=O)OC)C(C)C)c(=O)n1CC1CCCCC1 [Compound I-134]	< 2 nM	< 2 nM	< 2 nM	–	–	–	inhibition in vivo at 0.5 % [5]: 91%
COC(=O)[C@@H](NC(=O)c1cc2c(n(Cc3ccc(F)cc3)c1=O)CCCCCC2)C(C)C [Compound I-253]	< 2 nM	< 2 nM	< 2 nM	–	–	–	inhibition in vivo at 1.5 % [5]: 70%
CCCCn1c2c(cc(C(=O)NC3(CC(=O)O)CCCC3)c1=O)CCCCCC2 [Compound X-235]	950 nM	270 nM	3.7 nM	–	4.7 nM	–	–
COC(=O)C(C)(C)NC(=O)c1cc2c(n(Cc3ccc(F)cc3)c1=O)CCCCCC2 [Compound I-255]	2.1 nM	< 2 nM	< 2 nM	–	–	–	inhibition in vivo at 1.5 % [5]: 93%
CCCCn1c2c(cc(C(=O)NCc3ccccc3)c1=O)CCCCCC2 [Compound 4-101, reference compound]	–	–	1.9 nM	–	–	–	inhibition in vivo at 5 % [5]: 7.5%
CCc1c(C)cc(C(=O)NC2(C(=O)O)CCCCCCCCC2)c(=O)n1Cc1ccc(F)cc1 [Compound X-231]	–	–	38 nM	> 2000 nM	35 nM	> 2000 nM	–

Compound	Ki (CB1 receptor [2])	IC50 (CB1 receptor [4]; [7])	Ki (CB2 receptor [3])	IC50 (CB1 receptor [4])	IC50 (CB2 receptor [1])	Ki (CB1 receptor [2]; [10])	other results
CC(C)(NC(=O)c1cc2c(n(CC3CCCCC3)c1=O)CCCCCC2)C(=O)OCC(O)CO (stereo not drawn) [Compound I-305]	< 2 nM	< 2 nM	< 2 nM	–	–	–	inhibition in vivo at 0.5 % [5]: 61%
CN(CCO)C(=O)C(C)(C)NC(=O)c1cc2c(n(CC3CCCCC3)c1=O)CCCCCC2 [Compound I-019, 1-cyclohexylmethyl-2-oxo-1,2,5,6,7,8,9,10-octahydro-cycloocta[b]pyridine-3-carboxylic acid {1-[(2-hydroxyethyl)-methyl-carbamoyl]-1-methyl-ethyl}-amide]	–	8.1 nM	< 2 nM	–	–	2.9 nM	inhibition in vivo at 1 % [5]: 74%
CC(C)OC(=O)C(C)(C)NC(=O)c1cc2c(n(CC3CCCCC3)c1=O)CCCCCC2 [Compound I-301]	< 2 nM	< 2 nM	< 2 nM	–	–	–	inhibition in vivo at 0.5 % [5]: 39%
CCCCn1c2c(cc(C(=O)NC3(CC(=O)O)CCCCC3)c1=O)CCCCCC2 [Compound X-157]	–	–	3.4 nM	268 nM	< 2 nM	270 nM	–
CCc1c(C)cc(C(=O)Nc2nc(CC(=O)O)ns2)c(=O)n1CC1CCCCC1 [Compound X-133]	–	–	5.5 nM	> 2000 nM	< 2 nM	> 2000 nM	–
CCCCn1c(CCC)c(CC)cc(C(=O)NC2(CC(=O)O)CCCC2)c1=O [Compound X-233]	–	–	24 nM	> 2000 nM	15 nM	> 2000 nM	–
O=C(NC1(C(=O)O)CCCCCCC1)c1cc2c(n(CC3CCCCC3)c1=O)CCCCCC2 [Compound X-240]	–	–	–	–	< 2 nM	793 nM	IC50 (CB1 receptor [4]; inhibition of forskolin (4 μM)-stimulated cAMP formation, CHO cells expressing human CB1, read-out: Agonist activity (nM) CB1): 468 nM; Ki (CB2 receptor [3]; [6]): 6.2 nM
CCOC(=O)C(C)(C)NC(=O)c1cc2c(n(CC3CCCCC3)c1=O)CCCCCC2 [Compound I-300]	< 2 nM	< 2 nM	< 2 nM	–	–	–	inhibition in vivo at 0.5 % [5]: 41%
CCCCn1c2c(cc(C(=O)N[C@H](C(=O)OC)C(C)(C)C)c1=O)CCCCCC2 [Compound I-203]	< 2 nM	< 2 nM	< 2 nM	–	–	–	inhibition in vivo at 0.5 % [5]: 86%
O=C(NC1(C(=O)O)CCCCC1)c1cc2c(n(Cc3ccc(F)c(F)c3)c1=O)CCCCCC2 [XI-017]	–	–	6.6 nM	127 nM	11 nM	441 nM	–
CCc1c(C)cc(C(=O)NC2(CC(=O)O)CCCC2)c(=O)n1Cc1ccc(F)cc1 [Compound X-234]	–	–	4 nM	375 nM	6.1 nM	482 nM	–
CCc1c(C)cc(C(=O)NCC2(CC(=O)O)CCCCC2)c(=O)n1Cc1ccc(F)cc1 [Compound X-197]	1260 nM	708 nM	41 nM	–	7.2 nM	–	–
CCc1c(C)cc(C(=O)N[C@H](C(=O)OC)C(C)(C)C)c(=O)n1CC1CCCCC1 [Compound I-252]	< 2 nM	< 2 nM	< 2 nM	–	–	–	inhibition in vivo at 1.5 % [5]: 96%
CCCCn1c2c(cc(C(=O)NC(CC)(CC)CC(=O)O)c1=O)CCCCCC2 [Compound X-128]	–	–	10 nM	152 nM	3 nM	608 nM	–
O=C(O)C1=C(NC(=O)c2cc3c(n(CC4CCCCC4)c2=O)CCCCCC3)CCCC1 [Compound X-126]	873 nM	131 nM	31 nM	–	35 nM	–	–
CCCCn1c(CCC)c(CC)cc(C(=O)NC2(CC(=O)O)CCCCC2)c1=O [Compound X-174]	–	–	8.9 nM	> 2000 nM	9.8 nM	> 2000 nM	–
CCc1c(C)cc(C(=O)Nc2nc(CC(=O)O)cs2)c(=O)n1Cc1ccc(F)cc1 [Compound X-222]	–	–	43 nM	> 2000 nM	57 nM	1620 nM	–
CCc1c(C)cc(C(=O)NC2(C(=O)O)CCCCC2)c(=O)n1Cc1ccc(F)c(F)c1 [XI-027]	–	–	54 nM	> 2000 nM	–	–	IC50 (CB2 receptor [1]; [8]): 209 nM; Ki (CB1 receptor [2]; [9]): 1360 nM
